Results from ChEMBL document CHEMBL1201862, “PubChem BioAssay data set” (2004).
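Compound exposure: 48 hours, 5 concentrations, 96-well plates. At the GI50, growth is halved.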 Activity calls are given as the source filed them. Cut-off read from the data, not from the text of the source: active = GI50 up to about 1.1 µM and inactive = higher.

Assays:
Experiment in all cases: growth of human tumour cells (NCI), 48 h
A549 = system: A549
ACHN = system: ACHN
CCRF-CEM = system: CCRF-CEM
HOP-62 = system: HOP-62
HT-29 = system: HT-29
KM12 = system: KM12
M14 = system: M14
MOLT-4 = system: MOLT-4
NCI-H23 = system: NCI-H23
OVCAR-4 = system: OVCAR-4
OVCAR-8 = system: OVCAR-8
SF-268 = system: SF-268
SK-MEL-2 = system: SK-MEL-2
SK-OV-3 = system: SK-OV-3
SNB-19 = system: SNB-19
SW-620 = system: SW-620
TK-10 = system: TK-10
U-251 = system: U-251
UACC-62 = system: UACC-62
UO-31 = system: UO-31

Measured: GI50

CC(=O)Nc1ccc(C2=N/C(=C\c3ccc(Cl)cc3)C(=O)O2)cc1
inactive: A549 > 100 µM | ACHN 27.4 µM | CCRF-CEM 26.7 µM | HOP-62 > 100 µM | HT-29 60.7 µM | KM12 33.1 µM | M14 25.5 µM | MOLT-4 20.7 µM | NCI-H23 36.4 µM | OVCAR-4 65 µM | OVCAR-8 32.1 µM | SF-268 34.3 µM | SK-MEL-2 > 100 µM | SK-OV-3 30.7 µM | SNB-19 63.7 µM | SW-620 8.91 µM | TK-10 > 100 µM | U-251 38.5 µM | UACC-62 40.6 µM | UO-31 26.4 µM

CC1(C)CC[C@]2(C)[C@@H](O)C[C@]3(C)C(=CC[C@@H]4[C@@]5(C)CC[C@H](O)C(C)(C)[C@@H]5CC[C@]43C)[C@@H]2C1
inactive: A549 31.7 µM | ACHN 41.4 µM | CCRF-CEM > 100 µM | HOP-62 37 µM | HT-29 39.2 µM | KM12 41.4 µM | M14 93.1 µM | MOLT-4 > 100 µM | NCI-H23 29.4 µM | OVCAR-4 97.3 µM | OVCAR-8 20.3 µM | SF-268 46.3 µM | SK-MEL-2 26.4 µM | SK-OV-3 14.9 µM | SNB-19 61.5 µM | SW-620 > 100 µM | TK-10 27.9 µM | U-251 28.7 µM | UACC-62 58.7 µM | UO-31 20.4 µM

O=C(CN1CCN(Cc2ccccc2)CC1)c1ccc2[nH]c(=O)oc2c1
inactive: A549 > 100 µM | ACHN > 100 µM | CCRF-CEM > 100 µM | HOP-62 > 100 µM | HT-29 > 100 µM | KM12 > 100 µM | M14 > 100 µM | MOLT-4 > 100 µM | NCI-H23 > 100 µM | OVCAR-4 > 100 µM | OVCAR-8 > 100 µM | SF-268 > 100 µM | SK-MEL-2 > 100 µM | SK-OV-3 > 100 µM | SNB-19 > 100 µM | SW-620 > 100 µM | TK-10 > 100 µM | U-251 > 88.7 µM | UACC-62 > 100 µM | UO-31 60.7 µM

NCc1ccccc1-c1c2nc(c(-c3ccccc3CN)c3ccc([nH]3)c(-c3ccccc3CN)c3nc(c(-c4ccccc4CN)c4ccc1[nH]4)C=C3)C=C2
inactive: A549 22.1 µM | ACHN 16.4 µM | CCRF-CEM 4.17 µM | HOP-62 22.1 µM | HT-29 28.2 µM | KM12 20 µM | M14 21 µM | MOLT-4 > 10 µM | NCI-H23 21.8 µM | OVCAR-4 19.4 µM | OVCAR-8 37 µM | SF-268 20.8 µM | SK-MEL-2 24.7 µM | SNB-19 18.6 µM | SW-620 34.1 µM | TK-10 27.5 µM | U-251 18.5 µM | UACC-62 24.9 µM | UO-31 18.5 µM

O=C1C(=O)N(C2CCCCC2)C(=S)N1C1CCCCC1
inactive: A549 > 100 µM | ACHN > 100 µM | CCRF-CEM > 100 µM | HOP-62 > 100 µM | HT-29 > 100 µM | KM12 > 100 µM | MOLT-4 > 100 µM | NCI-H23 > 100 µM | OVCAR-4 > 100 µM | OVCAR-8 > 100 µM | SF-268 > 100 µM | SK-MEL-2 > 100 µM | SK-OV-3 > 100 µM | SNB-19 > 100 µM | SW-620 > 100 µM | TK-10 > 100 µM | U-251 > 100 µM | UACC-62 > 100 µM | UO-31 > 100 µM

CSc1ccccc1P(c1ccccc1SC)c1ccccc1SC
inactive: A549 > 100 µM | ACHN > 100 µM | CCRF-CEM > 100 µM | HOP-62 25.4 µM | KM12 > 100 µM | M14 > 100 µM | MOLT-4 > 100 µM | NCI-H23 > 100 µM | OVCAR-4 > 100 µM | OVCAR-8 > 100 µM | SF-268 > 100 µM | SK-MEL-2 > 100 µM | SK-OV-3 > 100 µM | SNB-19 > 100 µM | SW-620 > 100 µM | TK-10 > 100 µM | U-251 31.6 µM | UACC-62 > 100 µM | UO-31 > 100 µM

CN(/N=C/c1ccc(Cl)cc1)C1=NCCCCN1
inactive: A549 93.8 µM | ACHN > 100 µM | CCRF-CEM 38.1 µM | HOP-62 > 100 µM | HT-29 66.2 µM | KM12 50.5 µM | M14 24.6 µM | MOLT-4 26.7 µM | NCI-H23 > 100 µM | OVCAR-4 > 100 µM | OVCAR-8 > 100 µM | SF-268 > 100 µM | SK-MEL-2 > 10 µM | SK-OV-3 > 100 µM | SNB-19 > 100 µM | SW-620 > 100 µM | TK-10 > 100 µM | U-251 > 100 µM | UACC-62 67.1 µM | UO-31 > 100 µM

CCc1cccc(C)c1NC(=O)C(=O)CC(=O)c1ccc(Cl)s1
inactive: A549 > 100 µM | ACHN > 100 µM | CCRF-CEM > 100 µM | HOP-62 > 100 µM | HT-29 > 100 µM | KM12 > 100 µM | M14 > 100 µM | MOLT-4 > 100 µM | NCI-H23 > 100 µM | OVCAR-4 > 100 µM | OVCAR-8 > 100 µM | SF-268 > 100 µM | SK-MEL-2 > 100 µM | SK-OV-3 > 100 µM | SNB-19 > 100 µM | SW-620 > 100 µM | TK-10 > 100 µM | U-251 > 100 µM | UACC-62 > 100 µM | UO-31 > 100 µM

CN(C)CCS/C(=N\c1ccccc1)N1CCCCC1
inactive: A549 91.8 µM | ACHN 16.5 µM | CCRF-CEM 23.8 µM | HOP-62 > 100 µM | HT-29 17.9 µM | KM12 16.5 µM | M14 16.4 µM | MOLT-4 19 µM | NCI-H23 19.1 µM | OVCAR-4 19.1 µM | OVCAR-8 17.5 µM | SF-268 18.4 µM | SK-MEL-2 16.5 µM | SK-OV-3 75.7 µM | SNB-19 86.9 µM | SW-620 17.8 µM | TK-10 18 µM | U-251 41.8 µM | UACC-62 16 µM | UO-31 20.3 µM

O=C1CC2CC3OC3[C@H]3c4cc5c(cc4C(=O)N1C23)OCO5 (stereo not given in full)
inactive: A549 > 100 µM | ACHN > 100 µM | CCRF-CEM > 100 µM | HOP-62 > 100 µM | HT-29 > 100 µM | KM12 > 100 µM | M14 > 100 µM | MOLT-4 > 100 µM | OVCAR-4 > 100 µM | OVCAR-8 > 100 µM | SF-268 > 100 µM | SK-MEL-2 > 100 µM | SK-OV-3 > 100 µM | SNB-19 > 100 µM | SW-620 > 100 µM | TK-10 > 100 µM | UACC-62 > 100 µM | UO-31 > 100 µM
